Data on 41 compounds can be found in ChEMBL document CHEMBL5528015, “Structure-based design of SARS-CoV-2 papain-like protease inhibitors” (Eur J Med Chem, 2024).

The structures appear in SMILES notation. The source made the active and inactive calls. The calls are words filed in the database; no cut-off is given here.

In data set [1] the target is Replicase polyprotein 1ab (Severe acute respiratory syndrome coronavirus 2, UniProt P0DTD1). The data set is described as follows: biochemical.
The conditions of data set [2]: mouse, microsomes, 1 h, 1 µM.
A short description of data set [3]: Metabolic stability in mouse liver microsomes assessed as intrinsic clearance at 1 uM measured upto 60 mins in presence of NADPH regenerating system by LC-MS/MS analysis. Format: ADME, Microsome. The settings on record: read-out: CLH.
A short description of data set [4]: Cytotoxicity against African green monkey Vero E6 cells incubated for 48 hrs by neutral red uptake assay. Format: toxicity, cell-based, Vero C1008. The settings on record: chlorocebus sabaeus.
The target in data set [5] is Replicase polyprotein 1ab (Severe acute respiratory syndrome coronavirus 2) (UniProt P0DTD1). The settings on record: BetaCoV/Wuhan/WIV04/2019, dose 40.0 µM, time 30.0 min.
The next data set can be described thus: in vitro. The settings on record: mouse, liver microsomes.

In the case of `Cc1ccc(OCCN)cc1C(=O)N[C@H](C)c1cccc(-c2c[nH]nc2C)c1`, the IC50 – broadly, the concentration at which inhibition is half-maximal – in data set [1] came out at 1.96 µM. `C[C@H](c1cccc(-c2cccs2)c1)N(C)Cc1c[nH]c2cc(F)ccc12` showed an IC50 in data set [1] of 2.34 µM. As to `Cc1ccc(OCCN)cc1C(=O)N[C@H](C)c1cccc(-c2ccc(F)cc2F)c1`, the IC50 in data set [1] was determined as 1.54 µM.

`Cc1ccc(OCCN)cc1C(=O)N[C@H](C)c1cccc(-c2cnn(C(F)F)c2)c1` returned an IC50 in data set [1] of 1.14 µM. Consider `Cc1ccc(OCCN)cc1C(=O)N[C@H](C)c1cccc(-c2ccsc2)c1`, for which, in data set [2], the t1/2 was 1.958 h. Moreover, the microsomal CLint at 1 µM in data set [3] came to 11.8 µL/min/mg. For the same compound, the half-maximal cytotoxic concentration (CC50) – broadly, the concentration giving 50% cytotoxicity – at 48 h in data set [4] was over 30 µM. In turn, `C[C@H](c1cccc2ccccc12)N(C)Cc1c[nH]c2ccccc12` showed a half-maximal cytotoxic concentration (CC50) at 48 h in data set [4] of 24.7 µM. For `Cc1ccc(OCCN)cc1C(=O)N[C@H](C)c1cccc(-c2ccc(F)cc2)c1`, in data set [1], 1.22 µM corresponded to half-maximal inhibition (IC50). `COc1cc(O)ccc1CN(C)[C@@H](C)c1cccc(-c2ccc(CN3CCCC3)s2)c1`: 3 µM corresponded to half-maximal inhibition in data set [1] (IC50). For the compound `Cc1ccc(OCCN)cc1C(=O)N[C@H](C)c1cccc(-c2ccn[nH]2)c1`, in data set [1], the IC50 was determined as 1.16 µM.

For `Cc1ccc(OCCN)cc1C(=O)N[C@H](C)c1cccc(-c2cccs2)c1`, in data set [2], the t1/2 is over 2.42 h. Also, in data set [3], the microsomal CLint at 1 µM was under 9.6 µL/min/mg. In data set [4], this compound registered a 50% cytotoxic concentration (CC50) at 48 h of 15.2 µM. Regarding `Cc1ccc(OCCN)cc1C(=O)N[C@H](C)c1cccc(-c2ccnn2C)c1`, in data set [1], the concentration for half-maximal inhibition (IC50) is 2.78 µM. In data set [1], `Cc1ccc(OCCN)cc1C(=O)N[C@H](C)c1cccc(-c2c(C)noc2C)c1` came in with an IC50 of 1.48 µM.

Compound `Cc1ccc(OCCN)cc1C(=O)N[C@H](C)c1cccc(-c2cnn(Cc3ccccc3)c2)c1` yielded an IC50 in data set [1] of 1.03 µM. Take `Cc1ccc(OCCN)cc1C(=O)N[C@H](C)c1cccc(-c2ccoc2)c1`: the result in data set [5] was Active. Besides, the t1/2 in data set [2] is 0.897 h. In data set [3], the microsomal CLint at 1 µM was 25.7 µL/min/mg. Besides, the cytotoxic concentration (CC50) at 48 h in data set [4] was determined as 103 µM. With `C[C@H](c1cccc(-c2cccs2)c1)N(C)Cc1c[nH]c2ccc(F)cc12`, in data set [1], half-maximal inhibition (IC50) was put at 2.66 µM. As to `C[C@H](c1cccc2ccccc12)N(C)Cc1c[nH]c2ccc(F)cc12`, the half-maximal cytotoxic concentration (CC50) at 48 h in data set [4] stood at 32.5 µM.

Consider `Cc1ccc(OCCN)cc1C(=O)N[C@H](C)c1cccc(-c2ccc(CNC3CC3)s2)c1`, for which the concentration for half-maximal inhibition (IC50) in data set [1] came to 0.94 µM. Compound `C[C@H](c1cccc2ccccc12)N(C)Cc1ccc2[nH]ncc2c1` returned a CC50 at 48 h in data set [4] of 35.5 µM. `C[C@H](c1cccc2ccccc12)N(C)Cc1ccc(O)cc1O`: in data set [5], the result was Active. In data set [4], the half-maximal cytotoxic concentration (CC50) at 48 h turned out to be 31.5 µM. Regarding `Cc1ccc(OCCN)cc1C(=O)N[C@H](C)c1cccc(-c2ccc(O)cc2)c1`, the t1/2 in data set [2] came out at 0.962 h. Also, in data set [3], the microsomal CLint at 1 µM worked out at 24 µL/min/mg. In data set [4], this compound returned a cytotoxic concentration (CC50) at 48 h of 45.2 µM.

Consider `C[C@H](c1cccc(-c2cccs2)c1)N(C)Cc1ccc2cn[nH]c2c1`, for which it took 2.36 µM to reach half-maximal inhibition in data set [1] (IC50). `COCCn1cc(-c2cccc([C@@H](C)NC(=O)c3cc(OCCN)ccc3C)c2)cn1`: 1.51 µM corresponded to half-maximal inhibition in data set [1] (IC50). For `Cc1ccc(OCCN)cc1C(=O)N[C@H](C)c1cccc(-c2ccc(C#N)cc2)c1`, the 50% inhibitory concentration (IC50) in data set [1] amounted to 0.89 µM. In data set [1], `Cc1ccc(OCCN)cc1C(=O)N[C@H](C)c1cccc(-c2cnc(N(C)C)nc2)c1` returned an IC50 of over 20 µM.

In data set [1], `Cc1ccc(OCCN)cc1C(=O)N[C@H](C)c1cccc(-c2cnn(C)c2)c1` registered a concentration for half-maximal inhibition (IC50) of 0.96 µM. As for `Cc1ccc(OCCN)cc1C(=O)N[C@H](C)c1cccc(-c2ccc(C#N)s2)c1`, the half-maximal cytotoxic concentration (CC50) at 48 h in data set [4] was found to be 15 µM. Consider `Cc1ccc(O)cc1CN(C)[C@H](C)c1cccc2ccccc12`, for which, in data set [3], the microsomal CLint at 1 µM was determined as 2490 µL/min/mg. In addition, in data set [4], it took 14.4 µM to reach half-maximal cytotoxicity (CC50 at 48 h). `Cc1ccc(NC2CNC2)cc1CN(C)[C@H](C)c1cccc2ccccc12`: the t1/2 in data set [2] turned out to be 1.673 h. In data set [3], the microsomal CLint at 1 µM was 13.8 µL/min/mg. This compound also showed a cytotoxic concentration (CC50) at 48 h in data set [4] of 13.7 µM. Regarding `C[C@H](c1cccc2ccccc12)N(C)Cc1ccc(O)cc1`, in “in vitro”, the half-life – broadly, the time in which the quantity being followed falls by half – at 1 h, 1 µM was 1.8 min. Moreover, the microsomal CLint at 1 µM in data set [3] stood at 779 µL/min/mg. Also, in data set [4], the 50% cytotoxic concentration (CC50) at 48 h was found to be 23.7 µM. `Cc1ccc(OCCN)cc1C(=O)N[C@H](C)c1cccc(-c2ccc3c(c2)CCO3)c1`: the half-maximal inhibitory concentration (IC50) in data set [1] was determined as 1.08 µM. Take `COc1cc([N+](=O)[O-])ccc1CN(C)[C@H](C)c1cccc2ccccc12`: in data set [5], the outcome was Active. Moreover, the 50% cytotoxic concentration (CC50) at 48 h in data set [4] was over 100 µM. As to `Cc1ccc(OCCN)cc1C(=O)N[C@H](C)c1cccc2ccccc12`, the t1/2 in data set [2] is over 2.42 h. Also, the microsomal CLint at 1 µM in data set [3] is under 9.6 µL/min/mg. In the case of `Cc1ccc(OCCN)cc1C(=O)N[C@H](C)c1cccc(-c2ccccc2O)c1`, the IC50 in data set [1] turned out to be 2.25 µM.

In the case of `Cc1ccc(OCCN)cc1C(=O)N[C@H](C)c1cccc(-c2ccc3c(c2)OCCO3)c1`, the IC50 in data set [1] stood at 0.97 µM. Regarding `C[C@H](c1cccc(-c2ccc(CN3CCCC3)s2)c1)N(C)Cc1ccc2[nH]ncc2c1`, in data set [1], half-maximal inhibition (IC50) required 7.09 µM. With `C[C@H](c1cccc(-c2cccs2)c1)N(C)Cc1ccc(O)cc1O`, 5.03 µM corresponded to half-maximal inhibition in data set [1] (IC50).

As to `C[C@H](c1cccc2ccccc12)N(C)Cc1c[nH]c2cc(F)ccc12`, the midpoint of cytotoxicity in data set [4], the CC50 at 48 h, lay at 31.8 µM. In data set [1], `Cc1ccc(OCCN)cc1C(=O)N[C@H](C)c1cccc(-c2ccn(C)c2C)c1` had an IC50 of 3.35 µM.

On to `Cc1ccc(OCCN)cc1C(=O)N[C@H](C)c1cccc(-c2cn[nH]c2)c1`, for which, in data set [1], the 50% inhibitory concentration (IC50) came out at 1.49 µM.

The compound `C[C@H](c1cccc2ccccc12)N(C)Cc1ccc2cn[nH]c2c1` displayed a cytotoxic concentration (CC50) at 48 h in data set [4] of 28.3 µM. In the case of `C[C@H](c1cccc(-c2ccc(CN3CCCC3)s2)c1)N(C)Cc1cccc2[nH]ccc12`, the IC50 in data set [1] stood at 3.39 µM.
